These results are taken from US10590389B2, “Endodermal cell production method, liver cell production method, pancreatic cell production method, endodermal cell induction promoter, liver cell induction promoting kit, pancreatic cell induction promoting kit, and microfluidic device” (Kyoto University, priority 2014, dated 2020).

Common to all, as to assay type: cell-based
Test [1] has as its system H9 cell line (human ES cell). The experiment in a line: Endodermal cell induction from pluripotent cells with or without ROCK activity inhibitory compound (Example 8). How it is done: On a 24-well dish (growth area: 1.9 cm^2/well, BD Falcon [trademark]), a H9 cell line (obtained from WiCell), which is a human ES cell, was seeded in a dispersed state at a cell density of 1×10^5 cells/well and cultured for 24 hours. The culture conditions were set as follows: 37° C. and 5% CO2. As a culture solution, mTeSR-1 (STEMCELL) containing 10 μmol/l Y27632 (ROCK activity inhibitory compound, Wako) and 100 ng/ml activin A (R&D Systems) was used. To the mTeSR-1A, a penicillin-streptomycin solution (Wako) had been added beforehand so that the mTeSR-1 contained 100 U/ml penicillin and 100 U/ml streptomycin. After the culture, the culture solution used on culture day 1 was removed, and a culture solution with the same composition was further added to each well. The cells were further cultured for one day under the above-described culture conditions. The culture solution used on culture day 2 was removed, and mTeSR-1 containing 10 μmol/l Y27632, 100 ng/ml activin A, 10 ng/ml BMP-4 (R&D Systems), 10 μmol/l LY294002 (PI3K activity inhibitory compound, CAYMAN CHEMICAL COMPANY), and 3 μmol/l CHIR99021 (GSK-3β activity inhibitory compound, STEMGENT) was added. Then, the cells were cultured for 24 hours under the above-described culture conditions. […]

Test [2] relates to H9 cell line (human ES cell). In words: CXCR4 expression in induced endodermal cells by flow cytometry. The settings on record: dispersed or cluster-forming H9 cells, 10 μmol/l Y27632, under any of these conditions. As for the experimental part: On a 24-well dish (growth area: 1.9 cm^2/well, BD Falcon [trademark]), a H9 cell line (obtained from WiCell), which is a human ES cell, was seeded in a dispersed state at a cell density of 1×10^5 cells/well and cultured for 24 hours. The culture conditions were set as follows: 37° C. and 5% CO2. As a culture solution, mTeSR-1 (STEMCELL) containing 10 μmol/l Y27632 (ROCK activity inhibitory compound, Wako) and 100 ng/ml activin A (R&D Systems) was used. To the mTeSR-1A, a penicillin-streptomycin solution (Wako) had been added beforehand so that the mTeSR-1 contained 100 U/ml penicillin and 100 U/ml streptomycin. […] CXCR4 expression in the stained cells was measured using a flow cytometer (BD FACSCanto [trademark] II, BD Biosciences). CXCR4 expression was also measured in the same manner, except that, from culture day 1 to culture day 4, TeSR-E8 or CDM-PVA was used instead of the mTeSR-1. Further, CXCR4 expression was measured in the same manner, except that, instead of the H9 cell line in the dispersed state, the H9 cell line forming cell clusters was seeded on culture day 1. As a control, CXCR4 expression was measured in the same manner, except that an APC-labeled control antibody (clone name: G155-178, BD Pharmigen) was used instead of the anti-human CXCR4 antibody. […] CXCR4 expression in the thus-obtained endodermal cells was measured in the same manner as in (2) in Example 1. […]

For test [3], the system named is H9 cell line (human ES cell). The experiment in a line: Number of endodermal cells produced after induction. The settings on record: Example 2; seeding 5×10^4 to 2×10^5 cells/well; dispersed or clusters; 10 μmol/l Y27632; under any of these conditions. As for the experimental part:
Differentiation into endodermal cells was induced in the same manner as in Example 1, except that the H9 cell line was seeded at a cell density of 5×10^4 cells/well, 1×10^5 cells/well, or 2×10^5 cells/well. Also, differentiation into endodermal cells was induced in the same manner, except that, instead of the H9 cell line in the dispersed state, a H9 cell line forming cell clusters was seeded. Then, the endodermal cells obtained after the induction were collected. The endodermal cells obtained in (1) above were counted.

Compound `C[C@@H](N)[C@H]1CC[C@H](C(=O)Nc2ccncc2)CC1` [Y27632] displayed a probability of induction in test [1] (endodermal cell induction examined on culture day 5, 10 μmol/l Y27632 on culture days 1-4) of 100%. In addition, in test [1] (successful inductions / total inductions, examined on culture day 5, 10 μmol/l Y27632 on culture days 1-4 with activin A, BMP-4, LY294002, CHIR99021), the “Number of times endodermal cell induction was performed” value is recorded as 20/20. Further, the “proportion of the cells positive to the endoderm cell marker CXCR4” value in test [2] (Example 1, after culture day 5, mTeSR-1, TeSR-E8 or CDM-PVA) was ≥ 80.5%; in test [2] (Example 2, seeding 5×10^4, 1×10^5 or 2×10^5 cells/well), ≥ 83.7%. Further, in test [3], the “number of the endodermal cells obtained after the induction relative to the number of cells of the H9 cell line at the start of the induction” value is given as “at least six”.
